Where two headings read alike, the source gives them in different places.
Legend:
Swiss albino mice = assay: Analgesic activity against acetic acid induced writhing; assay type: in vivo; conditions: 10 mg/kg p.o., 1 h before i.p. 0.6% acetic acid; writhes counted for 10 min
From the text: (§1) Male Wistar rats weighing 175-200 g and Swiss albino mice weighing 20-25 g were housed in the Animal Care Facility. The animals were fed standard laboratory feed and tap water. Unless otherwise noted, in all experiments described in the following text, the sample size in each group was at least 6.
Analgesic Activity Against Acetic Acid Induced Writhing
Pain was induced by injection of irritant i.e. acetic acid into the peritoneal cavity of mice. […] Vehicle (1% w/v carboxymethylcellulose (CMC), 0.5 ml per orally (p.o.)) was given to control group (n=6 per group) of mice. […]. One hour following the administration of test molecule, 0.1 ml/100 gm of 0.6% v/v acetic acid solution was injected intraperitoneally to each of the test mice. The number of writhes that occurred within the next 10 min following acetic acid administration was counted and recorded. Results were expressed as percentage inhibition of writhing.

Wistar rats [1] = assay: Carrageenan-induced rat paw edema model; assay type: in vivo; conditions: 10 mg/kg oral, 2 h before carrageenan; for Anti-inflammatory activity in Wistar rats (% inhibition) 3 h: paw edema at 3 h; for Anti-inflammatory activity in Wistar rats (% inhibition) 4 h: paw edema at 4 h
Procedure: as §1
In Vivo Screening Method, Carrageenan-Induced Rat Paw Edema Model
Male Wistar rats (120-140 gm) were fasted for 16 hour before the experiment. Anti-inflammatory activity was evaluated by carrageenan-induced paw edema test in rats. Diclofenac sodium, tolfenamic acid and celecoxib at 10 mg/kg were administered as standard drugs for comparison. The test molecules were administered at dose level 10 mg/kg. Molecules were suspended in 0.25% carboxymethylcellulose (CMC) and administered orally in a volume of 10 ml/kg, 2 hour before carrageenan injection. Paw edema was induced in rats by intradermal injection of 50 μl, of 1% λ-carrageenan in saline into the planer surface of right hind paw. The volume of the injected paw was measured hourly thereafter for 4 hours using plethysmometer (Ugo-Basile, Italy). Paw edema was compared with vehicle controlled group and percentage inhibition was calculated.

Wistar rats [2] = conditions: for Gastric score: 100 mg/kg oral, fasted rats, 5 hours, sum of lesion lengths, mean SEM, 6 rats; for Histopathology study (ulcerogenecity): Dose 100 mg/kg oral, rat stomach
Procedure: (§2) Assessment of Gastric Ulcerogenic Effects in the Rat on Acute Administration of Drugs
(§3) Groups of 6 male Wistar rats weighing 120-140 g were fasted for 24 h with free access to water. […] The lengths (in millimeters) of all hemorrhagic lesions were measured and the “gastric damage score” was calculated for each stomach by summing these values. After scoring the damage, a sample of the corpus region of each stomach was fixed in neutral buffered formalin for subsequent histologic assessment.

[3] = Acute oral toxicity studies (OECD AOT No. 425); conditions: both sexes, mouse, in vivo, albino mice, observed 48 hrs
Procedure: Acute Oral Toxicity Studies
The mice were observed continuously for 2 h for behavioral, neurological and autonomic profiles for any lethality or death for next 48 hrs. Based on the results obtained from this study, lethal dose (LD50) was calculated.

Wistar rats [4] = conditions: rat, in vivo, po, 100 mg/kg
Procedure: as §2, §3

Compound | melting point [°C] | Analgesic activity in Swiss albino mice (% inhibition) (Swiss albino mice) [%] | Anti-inflammatory activity in Wistar rats (% inhibition) 3 h (Wistar rats [1]) [%] | Anti-inflammatory activity in Wistar rats (% inhibition) 4 h (Wistar rats [1]) [%] | also measured
O=[N+]([O-])c1cn(Cc2ccc(-c3ccccc3-c3nnn[nH]3)cc2)cn1 | 202 to 204 | – | – | – | –
Cc1nc([N+](=O)[O-])c(Br)n1Cc1ccc(-c2ccccc2C#N)cc1 | 158 to 162 | – | – | – | –
Cc1nc([N+](=O)[O-])c(Br)n1Cc1ccc(-c2ccccc2C(=O)O)cc1 | 222 to 225 | – | – | – | –
Cc1ncc([N+](=O)[O-])n1Cc1ccc(-c2ccccc2C#N)cc1 [4′-(2-Methyl-5-nitro-imidazol-1-ylmethyl)-biphenyl-2-carbonitrile] | – | 84.25 | 19.52 | 24.25 | –
N#Cc1ccccc1-c1ccc(Cn2cnc([N+](=O)[O-])c2)cc1 [4′-(4-Nitro-imidazol-1-ylmethyl)-biphenyl-2-carbonitrile] | – | 86.61 | 35.82 | 44.28 | Gastric score (Wistar rats [2]): 1.83 ± 0.54; Histopathology study (ulcerogenecity) (Wistar rats [2]): No sign of ulceration
O=C(O)c1ccccc1-c1ccc(Cn2cnc([N+](=O)[O-])c2)cc1 [4′-(4-Nitro-imidazol-1-ylmethyl)-biphenyl-2-carboxylic acid] | – | 84.13 | 38.31 | 44.63 | Gastric score (Wistar rats [2]): 1.6 ± 0.50; Histopathology study (ulcerogenecity) (Wistar rats [2]): No sign of ulceration
Cc1ccc(-c2cc(C(F)(F)F)nn2-c2ccc(S(N)(=O)=O)cc2)cc1 [Celecoxib, reference compound] | – | 77.0 | 45.24 | 45.32 | LD50 at 48 h [3]: < 2000 mg/kg; Histopathology study (ulcerogenecity) (Wistar rats [4]): No sign of ulceration
O=C(O)Cc1ccccc1Nc1c(Cl)cccc1Cl [Diclofenac sodium, reference compound] | – | 89.51 | 35.05 | 39.99 | –
NS(=O)(=O)c1ccc(Nc2ccccc2-c2ccc(Cn3cc([N+](=O)[O-])nc3CO)cc2)cc1 [Formula (I) Sr. No. 7, 4-[4′-(2-Hydroxymethyl-4-nitro-imidazol-1-ylmethyl)-biphenyl-2-ylamino]-benzenesulfonamide] | 154 to 155 | – | – | – | –
Cc1c(Cl)cccc1Nc1ccccc1C(=O)O [Tolfenamic acid] | – | – | – | – | LD50 at 48 h [3]: < 550 mg/kg; Histopathology study (ulcerogenecity) (Wistar rats [4]): Shows sign of
